Results: patent publication US20150141375A1 (priority 2009, published 2015)
Where “and” joins values, the source holds several entries; their conditions need not be identical. Identical values can stand only once.

How the values were obtained:
[1] = test system: BK Virus; test: In vitro potency against BK Virus in WI-38 cells; assay type: cell-based
[2] = test system: vaccinia virus; conditions: CMX001 200 mg initial dose plus other therapies (MMWR 2009); cited from earlier work
[3] = test system: HSV-2, strain MS; test: Mortality of BALB/c mice infected intranasally with HSV-2, strain MS; assay type: in vivo
Procedure: Animals: BALB/c, female mice, 3-4 weeks of age.
Treatments were administered to mice for 7 consecutive days beginning 72 hr post viral inoculation by oral gavage using a 0.2 ml volume. CMX001 was administered once daily and ACV was given twice daily at approximately 12 hr intervals.
Mortality rates analyzed by Fisher's exact test; Mean day of death (MDD) by Mann-Whitney U rank sum.

[4] = test system: ADV; test: EIND patients previously treated with other antivirals: ADV; assay type: in vivo, human; conditions: EIND 108104
Procedure: (§1) A further study has been conducted on patients with various viral infections and diseases associated with virus.
(§2) As shown in Table 5(b), all patients that have been previously treated with other antiviral agents for example cidofovir. […] After these patients are treated with CMX001, the patients show significant improvements.

[5] = Safety of CMX001 in HSCT and renal transplant recipients with BK virus viruria (blinded); assay type: in vivo, human; parameters: Mean ALT: unit not given here
From the text: Safety and tolerability of CMX001 in HSCT and renal transplant recipients with BK virus viruria is studied. The safety and tolerability of CMX001 in a post-transplant population is investigated and levels of BKV DNA in urine and plasma over time is monitored.
Twelve HSCT and twelve renal transplant recipients randomized 2:1 (CMX001:Placebo)
BKV viruria >10^4, renal transplant recipients allowed with viremia <10^4
Concomitant valganciclovir/ganciclovir excluded for HSCT recipients only Dosing Schedule: […]

[6] = PK comparison, rabbit; conditions: in vivo, 2 mg/kg, calculated from doses of 5 and 10 mg/kg, analyte = label, after CMX001
From the text: (§3) Table 4 illustrates the PK comparison of CMX001 with CMX021 and CMX064 for mouse, rabbit and human.

[7] = test system: BKV; test: EIND patients previously treated with other antivirals: BKV; assay type: in vivo, human
Procedure: as §1, §2

[8] = test system: HPV 11; test: In vitro potency against dsDNA viruses: HPV 11; assay type: cell-based
[9] = PK comparison, mouse; assay type: in vivo; conditions: in vivo, 2 mg/kg, calculated from doses of 2 and 10 mg/kg, analyte = label
From the text: as §3

[10] = test system: Variola major; test: organism not typed; assay type: cell-based
[11] = assay type: in vivo, human; conditions: individual patients
[12] = test system: Adenovirus; test: microbe, parasite or virus in culture; assay type: cell-based; conditions: for EC50: unidentified adenovirus
[13] = test system: HSV-2; test: In vitro efficacy against HSV-2 strains in HFF (CPE, plaque reduction); assay type: cell-based
From the text: In vitro screening by CPE assay in human foreskin fibroblast (HFF) cells with confirmation using plaque reduction assays in HFF.

[14] = renal transplant subjects, Day 0
[15] = renal transplant subjects, Day 7
[16] = renal transplant subjects, Day 14
[17] = renal transplant subjects, Day 21
[18] = renal transplant subjects, Day 28
[19] = stem cell transplant subjects, Day 0
[20] = stem cell transplant subjects, Day 7
[21] = stem cell transplant subjects, Day 14
[22] = stem cell transplant subjects, Day 21
[23] = stem cell transplant subjects, Day 28

**Q.** With CCCCCCCCCCCCCCCCOCCCOP(=O)(O)CO[C@H](CO)Cn1ccc(N)nc1=O [CMX001, Hexadecyloxypropyl-cidofovir] as the compound, how does the EC50 ([1]; Betapolyomavirus hominis, WI-38) read?
**A.** 130 nM

**Q.** What about the “selectivity index (SI)-50” value ([1]; WI-38, cells harvested 7 days after infection) of the same compound?
**A.** 113

**Q.** And the “time until virus cultures at the vaccination site became negative for vaccinia virus” value [2]?
**A.** ≤ 5 days

**Q.** And the MDD ([3]; CMX001 0.125 mg/kg)?
**A.** 9.0 ± 1.0

**Q.** What about the “Mortality Number” value ([3]; CMX001 0.125 mg/kg) of the same compound?
**A.** 13/15

**Q.** What about the “Mortality Percent” value ([3]; CMX001 0.125 mg/kg) of the same compound?
**A.** 87%

**Q.** What about the MDD ([3]; CMX001 0.42 mg/kg) of the same compound?
**A.** 9.8 ± 2.6

**Q.** What about the “Mortality Number” value ([3]; CMX001 0.42 mg/kg) of the same compound?
**A.** 12/15

**Q.** And the “Mortality Percent” value ([3]; CMX001 0.42 mg/kg)?
**A.** 80%

**Q.** What about the MDD ([3]; CMX001 1.25 mg/kg) of the same compound?
**A.** 9.4 ± 2.9

**Q.** And the “Mortality Number” value ([3]; CMX001 1.25 mg/kg)?
**A.** 9/15

**Q.** What about the “Mortality Percent” value ([3]; CMX001 1.25 mg/kg) of the same compound?
**A.** 60%

**Q.** And the “AdV viruria rebound, distance from baseline” value [4]?
**A.** within 0.7 log10 from baseline.

**Q.** What about the hemorrhagic cystitis [4] of the same compound?
**A.** cystitis improved.

**Q.** What about the “initial decline of AdV viruria” value [4] of the same compound?
**A.** 2.8 log10 decline, but it rebounded to

**Q.** And the “Mean Serum creatinine” value ([5]; renal transplant subjects, 40 mg/wk×5, Day 0)?
**A.** 1.3 mg/dL

**Q.** What about the “Mean ALT” value [5, 14] of the same compound?
**A.** 19.3

**Q.** What about the “Mean absolute Neutrophil count” value [5, 14] of the same compound?
**A.** 3.16 1000 per cu mm

**Q.** And the “Mean ALT” value [5, 15]?
**A.** 22.4

**Q.** And the “Mean Serum creatinine” value [5, 15]?
**A.** 1.3 mg/dL

**Q.** And the “Mean absolute Neutrophil count” value [5, 15]?
**A.** 4.88 1000 per cu mm

**Q.** What about the “Mean ALT” value [5, 16] of the same compound?
**A.** 21.4

**Q.** What about the “Mean Serum creatinine” value [5, 16] of the same compound?
**A.** 1.3 mg/dL

**Q.** And the “Mean absolute Neutrophil count” value [5, 16]?
**A.** 4.59 1000 per cu mm

**Q.** What about the “Mean ALT” value [5, 17] of the same compound?
**A.** 19.6

**Q.** And the “Mean Serum creatinine” value [5, 17]?
**A.** 1.4 mg/dL

**Q.** And the “Mean absolute Neutrophil count” value [5, 17]?
**A.** 3.46 1000 per cu mm

**Q.** And the “Mean ALT” value [5, 18]?
**A.** 18.2

**Q.** What about the “Mean Serum creatinine” value [5, 18] of the same compound?
**A.** 1.4 mg/dL

**Q.** And the “Mean absolute Neutrophil count” value [5, 18]?
**A.** 4.42 1000 per cu mm

**Q.** And the “Mean Serum creatinine” value ([5]; stem cell transplant subjects, 40 mg/wk×5, Day 0)?
**A.** 0.93 mg/dL

**Q.** And the “Mean ALT” value [5, 19]?
**A.** 32.7

**Q.** And the “Mean absolute Neutrophil count” value [5, 19]?
**A.** 4.40 1000 per cu mm

**Q.** What about the “Mean ALT” value [5, 20] of the same compound?
**A.** 17

**Q.** What about the “Mean Serum creatinine” value [5, 20] of the same compound?
**A.** 1.0 mg/dL

**Q.** And the “Mean absolute Neutrophil count” value [5, 20]?
**A.** 4.40 1000 per cu mm

**Q.** What about the “Mean ALT” value [5, 21] of the same compound?
**A.** 17.5

**Q.** And the “Mean Serum creatinine” value [5, 21]?
**A.** 0.9 mg/dL

**Q.** What about the “Mean absolute Neutrophil count” value [5, 21] of the same compound?
**A.** 3.55 1000 per cu mm

**Q.** What about the “Mean ALT” value [5, 22] of the same compound?
**A.** 21.0

**Q.** And the “Mean Serum creatinine” value [5, 22]?
**A.** 0.9 mg/dL

**Q.** And the “Mean absolute Neutrophil count” value [5, 22]?
**A.** 3.50 1000 per cu mm

**Q.** What about the “Mean ALT” value [5, 23] of the same compound?
**A.** 20.0

**Q.** What about the “Mean Serum creatinine” value [5, 23] of the same compound?
**A.** 1.2 mg/dL

**Q.** And the “Mean absolute Neutrophil count” value [5, 23]?
**A.** 3.15 1000 per cu mm

**Q.** What about the AUC [6] of the same compound?
**A.** 102 ng·h/mL

**Q.** And the Cmax [6]?
**A.** 18 ng/mL

**Q.** And the hemorrhagic cystitis ([7]; EIND 107275)?
**A.** improved while on CMX001

**Q.** And the BK viruria ([7]; EIND 107640, declined from 120 million)?
**A.** 48 million copies/mL

**Q.** What about the BK viremia ([7]; EIND 107640, decreased from 1900) of the same compound?
**A.** 1900 to 28 copies/mL; BK

**Q.** And the Hemorragic cystitis ([7]; EIND 108897)?
**A.** Hemorragic cystitis resolved

**Q.** What about the BKV in urine ([7]; EIND 108897, at last dose (baseline 7.7 log10), 4 mg/kg twice weekly 2 weeks) of the same compound?
**A.** log10 at baseline to 5.1 log10 at last

**Q.** What about the “decrease of BKV in urine” value ([7]; EIND 109232, first two weeks, 2 mg/kg twice weekly) of the same compound?
**A.** BKV in urine decreased 2.2 log10

**Q.** And the EC50 ([8]; A-431, A431)?
**A.** 17000 nM

**Q.** And the “Enhanced Activity” value ([8]; CMX001 versus cidofovir EC50)?
**A.** 42

**Q.** What about the AUC ([9]; after CMX001) of the same compound?
**A.** 83.1 ng·h/mL

**Q.** And the Cmax ([9]; after CMX001, read-out: Cmax)?
**A.** 7.9 ng/mL

**Q.** And the “Enhanced Activity” value ([10]; CMX001 versus cidofovir EC50)?
**A.** 271

**Q.** What about the EC50 ([10]; Vero 76) of the same compound?
**A.** 100 nM

**Q.** And the “WBC (3)” value ([11]; value on day one of CMX001 treatment)?
**A.** 3.6 (3) and 5.2 (3) and 2.17 (3)

**Q.** And the “WBC (4)” value ([11]; value on last day of CMX001 treatment)?
**A.** 5.4 (4) and 4.3 (4)

**Q.** And the “fold more activity compared to cidofovir” value ([12]; AdV 31)?
**A.** 5 fold

**Q.** What about the EC50 ([12]; AdV 31) of the same compound?
**A.** 280 nM

**Q.** And the EC50 ([12]; majority of adenovirus serotypes)?
**A.** < 50 nM

**Q.** What about the EC50 ([13]; Human alphaherpesvirus 2, ACV resistant strain 11572) of the same compound?
**A.** 27 ± 18 nM

**Q.** And the EC50 ([13]; Human alphaherpesvirus 2, ACV resistant strain 11680)?
**A.** 9 ± 0.7 nM

**Q.** And the EC50 ([13]; Human alphaherpesvirus 2, ACV resistant strain 12247)?
**A.** 21 ± 12 nM

**Q.** What about the EC50 ([13]; Human alphaherpesvirus 2, ACV resistant strain AG-3) of the same compound?
**A.** 23 ± 9 nM

**Q.** What about the EC50 ([13]; Human alphaherpesvirus 2, G (wild type), Table 9) of the same compound?
**A.** 29 ± 15 nM

**Q.** What about the EC50 ([13]; Human alphaherpesvirus 2, strain G) of the same compound?
**A.** 10 ± 10 nM

**Q.** What about the EC50 ([13]; Human alphaherpesvirus 2, strain MS) of the same compound?
**A.** 80 ± 70 nM

**Q.** And the EC50 ([13]; Human alphaherpesvirus 2, strain SR)?
**A.** 20 ± 20 nM
